Laboratory results reported in article PMC6690934, “High-density immobilization of a ginsenoside-transforming β-glucosidase for enhanced food-grade production of minor ginsenosides” (Applied Microbiology and Biotechnology, 2019).

Biological target: T1, MT619 (Microbacterium testaceum, UniProt E8N6P7)
T1 construct: gene MTES_2447; codon-optimized synthetic gene (MK575514); E. coli BL21; purified by Ni and DEAE columns
T1 sequence (E8N6P7 1-619): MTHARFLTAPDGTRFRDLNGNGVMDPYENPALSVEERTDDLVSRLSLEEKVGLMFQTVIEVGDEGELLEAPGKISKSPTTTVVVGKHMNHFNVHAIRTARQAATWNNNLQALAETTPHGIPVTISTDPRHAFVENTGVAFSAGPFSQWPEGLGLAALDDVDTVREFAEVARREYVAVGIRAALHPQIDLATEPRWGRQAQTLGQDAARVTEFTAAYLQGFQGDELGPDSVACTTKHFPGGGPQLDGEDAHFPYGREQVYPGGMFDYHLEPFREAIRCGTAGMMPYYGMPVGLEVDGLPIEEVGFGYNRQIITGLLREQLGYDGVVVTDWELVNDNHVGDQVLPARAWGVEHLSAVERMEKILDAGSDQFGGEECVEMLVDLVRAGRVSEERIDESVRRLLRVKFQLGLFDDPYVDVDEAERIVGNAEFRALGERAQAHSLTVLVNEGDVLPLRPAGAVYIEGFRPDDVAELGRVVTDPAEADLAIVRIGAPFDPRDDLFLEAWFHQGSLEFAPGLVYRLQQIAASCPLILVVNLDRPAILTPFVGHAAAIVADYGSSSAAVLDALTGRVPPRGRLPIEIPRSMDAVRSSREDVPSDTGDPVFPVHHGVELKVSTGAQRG
Experiment: TLC of hydrolysis products
Type: biochemical
Conditions: pH 7.0, 37 °C, 2.0 mg/mL substrate, 0.1 mg/mL enzyme

CC(C)=CCC[C@](C)(O[C@@H]1O[C@H](CO[C@@H]2O[C@H](CO)[C@@H](O)[C@H](O)[C@H]2O)[C@@H](O)[C@H](O)[C@H]1O)[C@H]1CC[C@]2(C)[C@@H]1[C@H](O)C[C@@H]1[C@@]3(C)CC[C@H](O[C@@H]4O[C@H](CO)[C@@H](O)[C@H](O)[C@H]4O[C@@H]4O[C@H](CO)[C@@H](O)[C@H](O)[C@H]4O)C(C)(C)[C@@H]3CC[C@]12C [Rb1]
TLC of hydrolysis products: MT619 could clearly transform four major ginsenosides (Re, Rg1, Rb1, and Rd)
